From paper PMC5224920, “Assessing the mechanism and therapeutic potential of modulators of the human Mediator complex-associated protein kinases” (eLife, 2016)

Test system: 12 single or co-culture in vitro tissue models of primary cells
Experiment: Culture/co-culture cell model panel, extracellular biomarkers (DiscoveRx); as to CCL2/MCP-1: reference of the scale not given here; as to CXCL8/IL-8: reference of the scale not given here; as to CXCL9/MIG: reference of the scale not given here; as to M-CSF: reference of the scale not given here; as to SRB: reference of the scale not given here
Assay type: cell-based, human
[1] = /HDFNo unstimulated fibroblasts, 1.00E4 nM
[2] = /HDFNo unstimulated fibroblasts, 1.11E3 nM
[3] = /HDFNo unstimulated fibroblasts, 1.23E2 nM
[4] = /HDFNo unstimulated fibroblasts, 1.37E1 nM
[5] = /HDFNo unstimulated fibroblasts, 3.33E3 nM
[6] = /HDFNo unstimulated fibroblasts, 3.70E2 nM
[7] = /HDFNo unstimulated fibroblasts, 4.12E1 nM
[8] = /HDFNo unstimulated fibroblasts, 4.57E0 nM

`Cc1n[nH]c2ncc(C(=O)N3CCC[C@H]3c3ccc(Cl)cc3)cc12` [CMPD4] gave a M-CSF (/HDF3CT, 3.70E2 nM) of -0.052, an MMP-1 (/HDF3CT, 3.70E2 nM) of -0.021 and a PAI-I (/HDF3CT, 3.70E2 nM) of -0.054. For the same compound, the SRB (/HDF3CT, 3.70E2 nM) was 0.014, the TIMP-2 (/HDF3CT, 3.70E2 nM) was 0.055 and the CCL2/MCP-1 (/HDF3CT, 4.12E1 nM) was -0.025. It also gave a CD54/ICAM-1 (/HDF3CT, 4.12E1 nM) of -0.054, a CD106/VCAM-1 (/HDF3CT, 4.12E1 nM) of 0.009 and a CXCL8/IL-8 (/HDF3CT, 4.12E1 nM) of -0.089. For the same compound, the CXCL9/MIG (/HDF3CT, 4.12E1 nM) was -0.015, the CXCL10/IP-10 (/HDF3CT, 4.12E1 nM) was 0.023 and the “Collagen I” value (/HDF3CT, 4.12E1 nM) was -0.036. The M-CSF (/HDF3CT, 4.12E1 nM) was -0.072, the MMP-1 (/HDF3CT, 4.12E1 nM) was 0.049 and the PAI-I (/HDF3CT, 4.12E1 nM) was -0.006. For the same compound, the SRB (/HDF3CT, 4.12E1 nM) was 0.013, the TIMP-2 (/HDF3CT, 4.12E1 nM) was 0.105 and the CCL2/MCP-1 (/HDF3CT, 4.57E0 nM) was 0.071. It also gave a CD54/ICAM-1 (/HDF3CT, 4.57E0 nM) of -0.030, a CD106/VCAM-1 (/HDF3CT, 4.57E0 nM) of 0.022 and a CXCL8/IL-8 (/HDF3CT, 4.57E0 nM) of -0.033. For the same compound, the CXCL9/MIG (/HDF3CT, 4.57E0 nM) was 0.019, the CXCL10/IP-10 (/HDF3CT, 4.57E0 nM) was 0.003 and the “Collagen I” value (/HDF3CT, 4.57E0 nM) was 0.009. For the same compound, the M-CSF (/HDF3CT, 4.57E0 nM) was -0.072, the MMP-1 (/HDF3CT, 4.57E0 nM) was 0.086 and the PAI-I (/HDF3CT, 4.57E0 nM) was 0.017. The SRB (/HDF3CT, 4.57E0 nM) was 0.023, the TIMP-2 (/HDF3CT, 4.57E0 nM) was 0.088 and the CXCL8/IL-8 [1] was 0.032. The CXCL9/MIG [1] was 0.127, the CXCL10/IP-10 [1] was 0.013 and the CXCL11/I-TAC [1] was -0.046. It also gave an EGFR [1] of 0.051, a M-CSF [1] of 0.0038 and an MMP-1 [1] of -0.013. For the same compound, the PAI-I [1] was -0.051, the Proliferation_72hr [1] was 0.179 and the SRB [1] was 0.000631. It also gave a TIMP-1 [1] of 0.019, a TIMP-2 [1] of -0.228 and a CXCL8/IL-8 [2] of -0.076. The CXCL9/MIG [2] was -0.081, the CXCL10/IP-10 [2] was -0.021 and the CXCL11/I-TAC [2] was -0.035. For the same compound, the EGFR [2] was -0.009, the M-CSF [2] was -0.068 and the MMP-1 [2] was -0.043. For the same compound, the PAI-I [2] was -0.052, the Proliferation_72hr [2] was 0.134 and the SRB [2] was 0.024. It also gave a TIMP-1 [2] of 0.00471, a TIMP-2 [2] of -0.013 and a CXCL8/IL-8 [3] of -0.103. The CXCL9/MIG [3] was -0.075, the CXCL10/IP-10 [3] was -0.039 and the CXCL11/I-TAC [3] was -0.045. The EGFR [3] was -0.011, the M-CSF [3] was 0.013 and the MMP-1 [3] was -0.032. It also gave a PAI-I [3] of 0.00163, a Proliferation_72hr [3] of 0.087 and an SRB [3] of 0.010. The TIMP-1 [3] was -0.034, the TIMP-2 [3] was 0.076 and the CXCL8/IL-8 [4] was -0.022. The CXCL9/MIG [4] was -0.044, the CXCL10/IP-10 [4] was -0.0053 and the CXCL11/I-TAC [4] was -0.037. For the same compound, the EGFR [4] was 0.035, the M-CSF [4] was 0.000135 and the MMP-1 [4] was -0.004. The PAI-I [4] was -0.012, the Proliferation_72hr [4] was 0.060 and the SRB [4] was 0.007. It also gave a TIMP-1 [4] of 0.000829, a TIMP-2 [4] of 0.075 and a CXCL8/IL-8 [5] of -0.039. For the same compound, the CXCL9/MIG [5] was -0.027, the CXCL10/IP-10 [5] was -0.048 and the CXCL11/I-TAC [5] was -0.031. For the same compound, the EGFR [5] was 0.046, the M-CSF [5] was -0.016 and the MMP-1 [5] was -0.033. For the same compound, the PAI-I [5] was -0.029, the Proliferation_72hr [5] was 0.157 and the SRB [5] was 0.00444. For the same compound, the TIMP-1 [5] was 0.014, the TIMP-2 [5] was -0.121 and the CXCL8/IL-8 [6] was -0.076. The CXCL9/MIG [6] was -0.059, the CXCL10/IP-10 [6] was -0.040 and the CXCL11/I-TAC [6] was -0.00462. It also gave an EGFR [6] of -0.018, a M-CSF [6] of -0.00531 and an MMP-1 [6] of -0.010. For the same compound, the PAI-I [6] was -0.018, the Proliferation_72hr [6] was 0.139 and the SRB [6] was 0.020. The TIMP-1 [6] was 0.003, the TIMP-2 [6] was 0.082 and the CXCL8/IL-8 [7] was -0.024. For the same compound, the CXCL9/MIG [7] was -0.065, the CXCL10/IP-10 [7] was -0.026 and the CXCL11/I-TAC [7] was -0.032. For the same compound, the EGFR [7] was 0.00663, the M-CSF [7] was -0.024 and the MMP-1 [7] was -0.026. For the same compound, the PAI-I [7] was -0.010, the Proliferation_72hr [7] was 0.102 and the SRB [7] was 0.013. The TIMP-1 [7] was -0.020, the TIMP-2 [7] was 0.059 and the CXCL8/IL-8 [8] was 0.034. For the same compound, the CXCL9/MIG [8] was 0.056, the CXCL10/IP-10 [8] was 0.00467 and the CXCL11/I-TAC [8] was -0.00186. The EGFR [8] was 0.019, the M-CSF [8] was -0.012 and the MMP-1 [8] was 0.055. For the same compound, the PAI-I [8] was 0.075, the Proliferation_72hr [8] was 0.072 and the SRB [8] was 0.043. For the same compound, the TIMP-1 [8] was 0.048, the TIMP-2 [8] was -0.057 and the CCL2/MCP-1 (/HDFNo, 1.00E4 nM) was 0.040. For the same compound, the CD54/ICAM-1 (/HDFNo, 1.00E4 nM) was 0.094, the CD106/VCAM-1 (/HDFNo, 1.00E4 nM) was 0.027 and the “Collagen I” value (/HDFNo, 1.00E4 nM) was 0.067. The “Collagen III” value (/HDFNo, 1.00E4 nM) was -0.015, the CCL2/MCP-1 (/HDFNo, 1.11E3 nM) was 0.00326 and the CD54/ICAM-1 (/HDFNo, 1.11E3 nM) was -0.048. For the same compound, the CD106/VCAM-1 (/HDFNo, 1.11E3 nM) was -0.067, the “Collagen I” value (/HDFNo, 1.11E3 nM) was -0.022 and the “Collagen III” value (/HDFNo, 1.11E3 nM) was 0.013. The CCL2/MCP-1 (/HDFNo, 1.23E2 nM) was -0.009, the CD54/ICAM-1 (/HDFNo, 1.23E2 nM) was -0.013 and the CD106/VCAM-1 (/HDFNo, 1.23E2 nM) was -0.096. The “Collagen I” value (/HDFNo, 1.23E2 nM) was -0.065, the “Collagen III” value (/HDFNo, 1.23E2 nM) was 0.012 and the CCL2/MCP-1 (/HDFNo, 1.37E1 nM) was -0.022. The CD54/ICAM-1 (/HDFNo, 1.37E1 nM) was -0.024, the CD106/VCAM-1 (/HDFNo, 1.37E1 nM) was 0.020 and the “Collagen I” value (/HDFNo, 1.37E1 nM) was -0.080. For the same compound, the “Collagen III” value (/HDFNo, 1.37E1 nM) was 0.026, the CCL2/MCP-1 (/HDFNo, 3.33E3 nM) was -0.021 and the CD54/ICAM-1 (/HDFNo, 3.33E3 nM) was -0.005. For the same compound, the CD106/VCAM-1 (/HDFNo, 3.33E3 nM) was -0.034, the “Collagen I” value (/HDFNo, 3.33E3 nM) was -0.014 and the “Collagen III” value (/HDFNo, 3.33E3 nM) was 0.025. For the same compound, the CCL2/MCP-1 (/HDFNo, 3.70E2 nM) was -0.005, the CD54/ICAM-1 (/HDFNo, 3.70E2 nM) was -0.029 and the CD106/VCAM-1 (/HDFNo, 3.70E2 nM) was -0.058. The “Collagen I” value (/HDFNo, 3.70E2 nM) was -0.055, the “Collagen III” value (/HDFNo, 3.70E2 nM) was 0.000891 and the CCL2/MCP-1 (/HDFNo, 4.12E1 nM) was 0.007. The CD54/ICAM-1 (/HDFNo, 4.12E1 nM) was -0.036, the CD106/VCAM-1 (/HDFNo, 4.12E1 nM) was -0.047 and the “Collagen I” value (/HDFNo, 4.12E1 nM) was -0.086. The “Collagen III” value (/HDFNo, 4.12E1 nM) was 0.030, the CCL2/MCP-1 (/HDFNo, 4.57E0 nM) was 0.025 and the CD54/ICAM-1 (/HDFNo, 4.57E0 nM) was 0.028. The CD106/VCAM-1 (/HDFNo, 4.57E0 nM) was 0.010.
